Test results as given in ChEMBL document CHEMBL1136663, “Structure-activity relationships studies of the anti-angiogenic activities of linomide” (Bioorg Med Chem Lett, 2003).

Experiments:
HUVEC = experiment: Inhibitory concentration against Human umbilical vein endothelial cell (HUVEC) proliferation; type: functional, cell-based
PC-3 = experiment: Antiproliferative activity against PC-3 prostate cancer cells; type: functional, cell-based; settings: Homo sapiens
Gallus gallus = species on record: Gallus gallus; experiment: Effective concentration for inhibiting blood vessel formation in the CAM (Chicken chorioallantoic membrane) angiogenesis assay.; type: functional

Cn1c(=O)c(C(=O)Nc2ccccc2)c(O)c2ccccc21
IC50 (HUVEC): 7.2 µM
IC50 (PC-3): > 100 µM
ED50 (Gallus gallus): 18 µg embryo-1

CN(C(=O)c1c(O)c2ccccc2n(C)c1=O)c1ccccc1 [ROQUINIMEX]
IC50 (HUVEC): 14 µM
IC50 (PC-3): > 100 µM
ED50 (Gallus gallus): 60.1 µg embryo-1

O=C(Nc1ccccc1)c1c(O)nc2ccccc2c1O
IC50 (HUVEC): 4 µM
IC50 (PC-3): > 100 µM
ED50 (Gallus gallus): 0.87 µg embryo-1

CN(C)C(=O)c1c(O)c2ccccc2n(C)c1=O
IC50 (HUVEC): 16.5 µM
IC50 (PC-3): > 100 µM
ED50 (Gallus gallus): 8.5 µg embryo-1

CN(C(=O)c1c(O)nc2ccccc2c1O)c1ccccc1
IC50 (HUVEC): 6.55 µM
IC50 (PC-3): > 100 µM
ED50 (Gallus gallus): 7.5 µg embryo-1

O=C(Nc1ccccc1)c1cc2ccccc2nc1O
IC50 (PC-3): > 100 µM
ED50 (Gallus gallus): > 100 µg embryo-1

CN(C(=O)c1cc2ccccc2n(C)c1=O)c1ccccc1
IC50 (PC-3): > 100 µM
ED50 (Gallus gallus): > 100 µg embryo-1
